# Measured values as given in a melting point compilation (Tetko et al.; mined from patent text by program, amines drawn as free bases though some values may be those of a salt).
row,SMILES,melting point [°C]
1,Cc1c(CCl)ncn1S(=O)(=O)N(C)C,115 to 118
2,O=C(O)CCCCC=C(c1ccccc1)c1ccccc1,71.5 to 72.5
3,Cc1cc(=O)c(-c2ccc(F)cc2)c(C)[nH]1,> 250
4,COc1ccnc(CCc2nc3cc(-c4ccc(S(=O)(=O)N(C)C)c(F)c4)cnc3[nH]2)c1,211 to 212
5,Cc1nc2c3c(ccn2c1C)C(O)C(O)C(c1ccccc1)N3 (stereo not given),199 to 200
6,CS(=O)(=O)c1ccc(-c2cc(C(F)(F)F)cnc2C(=O)c2ccccc2)cc1,141 to 142
7,COc1ccc(S(=O)(=O)C(CC(=O)NO)Cc2ccccc2)cc1OC (stereo not given),77 to 79
8,c1ccc2c(c1)C[C@H]1Nc3ccccc3[C@@H]21 (relative stereo),85 to 86
9,Cc1ccnc(NC(=O)C2=C(O)c3ccc4ccccc4c3S(=O)(=O)N2C)c1,221
10,COc1ccc(-c2[nH]nc3c2C(=O)c2c(NC(=O)N[C@@H]4CCCC[C@@H]4N)cccc2-3)cc1 (relative stereo),> 300
11,CC(=O)N1CCC(CCc2ccc(N(C)C)cc2)CC1,49 to 51
12,CC(C)(O)C(=O)c1ccc(C(O)c2ccc(C(=O)C3(O)CCCCC3)cc2)cc1 (stereo not given),115 to 118
13,COc1ccc(-c2nc3n(c2-c2ccc(OC)cc2)CCS3)cc1,155 to 158
14,O=Cc1cccc(-c2cc3nccnc3[nH]2)c1,268 to 270
15,CN(Cc1ccc(NC(=O)C2=Cc3cc(-c4ccc(Cl)c(Cl)c4)ccc3S(=O)(=O)CC2)cc1)C1CCOCC1,235 to 237
16,COc1cccc(-c2n[nH]c3c2Cc2ccccc2-3)c1,172 to 174
17,CC(=O)SCC(CSC(C)=O)C(=O)N1c2ccccc2CCC1C(=O)O (stereo not given),149 to 151
18,CCCCCCCCCCCCCCCCCCOc1cc(OCCCCC(=O)OC)cc(C(=O)O)c1,68 to 70
19,CC(C)c1cccc(C(C)C)c1NC(=O)NC1CC(C)(C)c2ccccc2C1(C)C (stereo not given),180 to 181
20,Cc1nc(-c2ccccc2)nc(-c2cccc([N+](=O)[O-])c2)c1CC#N,219 to 221
21,CC/C=C(\c1ccccc1N1CCCCC1)C(C(N)=O)c1ccc(C(=O)O)cc1 (stereo not given),174 to 175
22,CCCSC1=NSc2cc(C)cnc2N1Cc1ccc(-c2ccccc2-c2nnn[nH]2)cc1,158 to 160
23,COC(=O)c1ccc2oc3ccccc3c2c1C(=O)OC,126
24,COc1ccc(C2Sc3cc(Oc4ccccc4)ccc3NC(=O)C2O)cc1Cl (stereo not given),262 to 264
25,CCOC(=O)c1cnc2n(c1=O)C(C)CC=C2NC (stereo not given),141 to 142

row,SMILES,melting point [°C]
1,Cc1cc(C2(C(F)(F)F)CC(C#N)=C(c3ccccc3)O2)ccc1NC(=O)OC(C)(C)C (stereo not given),46 to 49
2,Cc1ccc(-c2[nH]c(-c3ccc([N+](=O)[O-])cc3)nc2C(=O)Nc2nccs2)cc1,256 to 258
3,CCNc1nnc(C(C)(C)C)c(=O)n1N,177
4,Cc1sc(Nc2cc(F)ccn2)nc1-c1cn[nH]c1,283
5,N#Cc1nn(-c2c(Cl)cc(C(F)(F)F)cc2Cl)c(SCc2ccccc2)c1S(=O)(=O)C(F)(F)F,117 to 119
6,CCCC(=O)OCc1ccc2oc(=O)c(C(=O)Oc3cncc(Cl)c3)cc2c1,146 to 148
7,O=c1[nH]nc2c3c(cccc13)Oc1ccc(COP(=O)(OCc3ccccc3)OCc3ccccc3)cc1-2,223 to 225
8,CN(CCCC(=O)O)c1ccc(C(=O)c2ccccc2)cc1,111 to 113
9,O=C1CCCN1CCc1ccccc1,50.5 to 52.5
10,COc1ccc(C=CC(=O)Nc2cccc(C(=O)O)c2)cc1OC,225 to 226
11,COc1cc(OC)c(-c2cccs2)cc1C=O,125 to 126
12,Cn1nc(-c2cnc(N)nc2-c2ccccc2)ccc1=O,254 to 255
13,CCCCCC(C)C(C)c1cc(O)c2c(c1)OC(C)(C)C1=C2CN(CC(=O)NC)CC1 (stereo not given),131 to 134
14,O=c1oc(-c2ccccc2)cc(O)c1SCc1cccc(OCCc2ccccc2)c1,85 to 90
15,CCOC(=O)CC(C(=O)c1ccc(OC2CCN(C(=O)OC(C)(C)C)CC2)cc1)c1ccccn1 (stereo not given),118 to 120
16,O=C(c1cc(N2CCC3(CC2)OCCO3)ccn1)N(O)Cc1ccccc1,98 to 102
17,CCc1cnc2c(c1)ON(C(C)(C(N)=O)C(C)C)O2 (stereo not given),114 to 117
18,O=C1c2cccc(-c3ccc(C(F)(F)F)cc3)c2CC1Br (stereo not given),94 to 97
19,CC1(C)C2CCC(C2)C1(C)F (stereo not given),93 to 94
20,Cc1cc(C(c2cc(C)sc2C)c2cc(C)sc2C)c(C)s1,143 to 144
21,CCCCCC(=O)Oc1c(-c2ccc(-c3ccccc3)cc2)nc2ccc(F)cc2c1C(=O)O,179 to 206
22,Nc1ccc(Cl)c(C(=O)NCC23CC4CC(CC(C4)C2)C3)c1,214
23,Cc1cc(COc2nn3c(-c4ccccc4)nnc3cc2-c2ccccc2)no1,180
24,Cc1cccc(-c2[nH]c(C(C)C)nc2-c2cccc(-c3ccc4c(c3)C(=O)CCS4(=O)=O)c2)n1,115 to 119
25,CN1N(c2ccccc2)C(=O)C(F)(F)C1(C)O (stereo not given),132 to 134

row,SMILES,melting point [°C]
1,CS(=O)c1ccc(C2=C(c3cc(F)cc(F)c3)C(=O)C(C)(C)O2)cc1 (stereo not given),133 to 134
2,Cc1nccn1-c1nc(-c2ccc(Cl)c(Cl)c2)c(CCCO)o1,140 to 141
3,O=c1c2c([nH]n1-c1cc(OCC3CCCSC3)c(Cl)cc1F)CCCC2 (stereo not given),96 to 100
4,CC(CN1CCOCC1)N1CCN(c2ccccc2)CC1 (stereo not given),55 to 56
5,CC(C)N1CC2CC(CN(C(=O)c3ccc(Cl)cc3)C2)C1,97 to 98
6,Ic1sc2ccccc2c1Oc1ccc(OCc2ccccc2)cc1,87 to 92
7,CCCCC/C=C\C/C=C\CCCCCCC[C@@H](C[C@@H]1OC(=O)[C@H]1CC)OC(=O)[C@H](CC(C)C)NC=O,48 to 53
8,NC(=S)Cn1c(=O)sc2ccccc21,205 to 207
9,O=C(Nc1c(Cl)cncc1Cl)c1ccc(OC(F)F)c2oc3ccc([N+](=O)[O-])cc3c12,> 270
10,CCCCCCCCCCCCOc1cc(C#N)c(C#N)cc1OCCOCCOCCOC,38 to 40
11,CC1CN(c2ccccn2)N=C1N (stereo not given),149 to 151
12,CCOC(=O)c1cc(S(N)(=O)=O)c(Cl)cc1Cl,119 to 122
13,Cc1ccc(C(=O)CC2CCCN(C)C2)cc1 (stereo not given),70 to 74
14,CCOC(=O)C(=C1CCCN1C)c1cc(OC)c(OC)c(OC)c1,115 to 116
15,CC(C)N1Cc2cc(N)ccc2N(CCCl)S1(=O)=O,154 to 156
16,O=C(O)C(=O)c1ccc(OCCOc2ccc3ccccc3c2)c(F)c1,168 to 169
17,CCn1c(C(O)(C2CCCCC2)C2CCCCC2)nc(-c2ccncc2)c1-c1ccc(Cl)cc1,221 to 224
18,O=c1ccc2cc([N+](=O)[O-])cc(-c3cccc4ccccc34)c2[nH]1,234 to 235
19,Cc1nc(-c2ccccc2)nc(-c2cccc([N+](=O)[O-])c2)c1CN1CCN(C)CC1,138 to 140
20,O=c1[nH]cnc2nn(C3CCCCC3)cc12,287 to 289
21,OCCCC#CC#Cc1ccccc1,50.9 to 51.6
22,CCOC(=O)COc1ccc(C(=O)c2ccc(O)cc2)c(Cl)c1Cl,127 to 129
23,O=C(NNc1nc2ccccc2n2cccc12)c1cc2ccccc2[nH]1,186
24,Cc1ccc(N2C(=O)NC(=O)C23CCN(C)CC3)cc1,172 to 174
25,O=C1NC(=O)C(c2ccccc2Cl)C1SC1=NCCS1 (stereo not given),195 to 200

row,SMILES,melting point [°C]
1,CN(C)C1CCc2c(c3ccccc3n2C)C1 (stereo not given),> 300
2,CCC1c2cccn2-c2ccc(F)cc2N1S(=O)(=O)c1ccc(O)c(Cl)c1 (stereo not given),180 to 184
3,CCOC(=O)COc1ccc(-c2c(Cl)c(CN3C(=O)CCC3=O)nc3sc4c(c23)CCS(=O)(=O)C4)cc1,215 to 216
4,CNC(=S)C1(c2cccnc2)CCCCCC1=O (stereo not given),144 to 146
5,Cn1c(C(F)(F)F)cc(=O)n(-c2ccc3snc(C4SCCS4)c3c2)c1=O,227 to 232
6,c1ccc2c(c1)CNc1c-2ccc2ccccc12,186 to 188
7,COc1ccc(C(=O)C(=O)c2cccc(-c3ccc(S(C)(=O)=O)cc3)c2-c2ccccc2)cc1OC,181 to 183
8,Cc1c(C(C)(C)C)cc(C(C)C)c(O)c1CO,143 to 146
9,N=C(Nc1ccc(Cl)cc1)Nc1ncccc1OCc1c(F)ccc(F)c1F,153 to 156
10,Nc1ccc(C(=O)Nc2ccc(N)cc2Cl)cc1,194 to 197
11,Cc1nc2c(s1)-c1nc(N)ncc1CC2,241 to 243
12,CCCCc1nc2c(N)nc3cc(CCc4ccccc4)ccc3c2n1CC(C)C,181 to 182
13,O=C(c1ccnc(Cl)c1)N1CC(c2ccc(F)cc2)C2(CCN(C/C=C/c3ccc(Cl)cc3)CC2)C1 (stereo not given),79 to 81
14,O=C(NCc1ccccc1Cl)C1Cc2ccccc2N1S(=O)(=O)c1ccc(-c2cccc(C(F)(F)F)c2)cc1 (stereo not given),142 to 144
15,COCC(NC(C)C)c1c[nH]c2cccc(Oc3ccc(Cl)cc3)c12 (stereo not given),149 to 150
16,COP(=O)(OC)C(C)NC(=O)C(C)NC(=O)C(C)NC(=O)CNC(C)(C)C (stereo not given),148 to 152
17,OC(CCN1CC=C(c2ccccc2)CC1)c1ccc(Cl)cc1Cl (stereo not given),103 to 104
18,COc1ccc(CCc2cccc(C(=O)Nc3ccc(Cl)cc3)c2O)cc1,141
19,COC(=O)C(=O)c1ccc(OCCCCCCOc2ccccc2)cc1,50 to 52
20,CC(C)Cn1cc(F)c(-n2cncn2)nc1=O,150 to 153
21,O=C(c1ccc(F)cc1)C1CCN(CCn2c(=O)[nH]c3cc(F)ccc3c2=O)CC1,248
22,COC(=O)C1Cc2c([nH]c3ccccc23)C(c2ccc(Cl)c(Cl)c2)N1C(=O)CCl (stereo not given),163 to 165
23,CCCCCCCCCCCCCCCC(=O)NC#N,62 to 65
24,CN1CCC(O)(c2ccccc2CO)CC1,118 to 119
25,CC(C)(C)c1csc(NC(=O)c2ccn3c(=O)c(/C=C/C(=O)O)c(N4CCC(O)CC4)nc3c2)n1,215 to 218
